The values that follow come from PMC10498496, “Design and Synthesis of Poly(2,2′-Bipyridyl) Ligands for Induction of Cell Death in Cancer Cells: Control of Anticancer Activity by Complexation/Decomplexation with Biorelevant Metal Cations” (Inorganic Chemistry, 2023).

Holding throughout (format): cell-based, human
Assay [1] relates to Jurkat cells. Kind of assay: MTT assay in the presence of the caspase inhibitor Z-VAD-fmk. The note with it: Z-VAD-fmk 15 μM 3 h. An excerpt:
We, therefore, selected Jurkat cells to study the cell death mechanism in detail, in this work. Programmed cell death (PCD) is generally classified into several types such as apoptosis, necroptosis, paraptosis, autophagic cell death, and so on.[30]−[33] We hypothesized that 1 and 2 function as inducers of apoptosis, which is a type of PCD in cancer cells, based on the morphological change of Jurkat cells observed in Figure 1 and mechanism of chelation therapy proposed in the previous studies.[11]−[19] It is known that the caspases family are cysteine proteases that play important roles in apoptosis and necroptosis.[38] Therefore, the effect of Z-VAD-fmk, which is known as one of general caspase inhibitors, on the cell death induced by 1 and cisplatin was examined.
Figure 3 Effect of Z-VAD-fmk on the cell death in Jurkat cells induced by 1. Jurkat cells were incubated in RPMI in the presence of Z-VAD-fmk (15 μM) for 3 h and then treated with (a) 1 (1 μM) and (b) cisplatin (50 μM) for 24 h. Asterisks indicate significant difference with *(P ≤ 0.05).
To investigate the mechanism responsible for the BAPTA-AM-induced cell death in Jurkat cells, Jurkat cells were incubated with Z-VAD-fmk (15 μM) for 3 h, and then cells were treated with BAPTA-AM (12.5 μM) for 24 h followed by an MTT assay.
IMR-90 cells in DMEM medium with 10% FBS (1.5 × 10^5 cells/mL) were seeded in to 96 well plates and incubated for 24 h at 37 °C, MTT assays with poly(bpy) ligands and their metal complexes (0–100 μM), cisplatin (0–100 μM), and actinomycin D (0–10 μM) were performed following the same procedure described above. These experiments were carried out at least three times. • (b) MTT assay in the presence of a caspase inhibitor. […]
(In general: Tetrazolium assays rely on reduction of a dye to a coloured formazan, in cell work by metabolically active cells.)

Another assay has as its system MOLT-4 cells. Kind of assay: MTT assay, cytotoxicity against MOLT-4 cells. Conditions: MTT, 37 °C, read-out: EC50 against MOLT-4. As to the method:
(§1) Second, we conducted the quantitative evaluation of the cytotoxicity of 1, 2, and 3 against various cancer cell lines by an MTT (3-(4,5-dimethylthiazol-2-yl)-2,5-diphenyltetrazolium bromide) assay. Jurkat, MOLT-4 (these two cell lines are human T-lymphocyte leukemia cells), and U937 (human lymphoma) cells (1.5 × 10^4 cells/well) were incubated in RPMI 1640 medium containing 10% FBS (fetal bovine serum) containing 1, 2, and 3 (0–25 μM) at 37 °C for 24 h, and then treated with the MTT reagent. A549 (human alveolar adenocarcinoma) and IMR-90 (normal human fetal lung fibroblast as model of normal cells) cells (1.5 × 10^4 cells/well) were incubated in DMEM (low glucose) with 10% FBS containing 1, 2, and 3 (0–25 μM), HeLa S3 (human epithelial carcinoma cells) cells (1.5 × 10^4 cells/well) were incubated in MEM with 10% FBS containing these ligands (0–25 μM) for 24 h at 37 °C and then treated with the MTT reagent.
(§2) • (a) Cytotoxic study. Jurkat cells, MOLT-4 cells, and U937 cells (1.5 × 10^5 cells/mL per one well) were incubated in 10% FBS RPMI 1640 medium containing 1 (0–25 μM), 2 (0–25 μM) , 3, cisplatin (0–100 μM), and actinomycin D (0–10 μM) under 5% CO2 at 37 °C for 24 h on 96 well plates (Watson), 0.5% MTT (3-(4,5-dimethyl-2-thiazolyl)-2,5-diphenyl-2H-tetrazolium bromide) reagent in PBS (10 μL) was then added to the cells. After incubation at 37 °C for 4 h, a formazan lysis solution (10% SDS in 0.01 N HCl) (100 μL) was added and the resulting solution was incubated overnight under the same conditions, followed by the measurement of absorbance at 570 nm with a microplate reader (BIO-RAD).

The next assay concerns HeLa S3 cells. Kind of assay: MTT assay, cytotoxicity against HeLa S3 cells. Conditions: MTT, 37 °C, read-out: EC50 against HeLa S3 (converted). The protocol:
Second, we conducted the quantitative evaluation of the cytotoxicity of 1, 2, and 3 against various cancer cell lines by an MTT (3-(4,5-dimethylthiazol-2-yl)-2,5-diphenyltetrazolium bromide) assay. Jurkat, MOLT-4 (these two cell lines are human T-lymphocyte leukemia cells), and U937 (human lymphoma) cells (1.5 × 10^4 cells/well) were incubated in RPMI 1640 medium containing 10% FBS (fetal bovine serum) containing 1, 2, and 3 (0–25 μM) at 37 °C for 24 h, and then treated with the MTT reagent. […]
(§3) HeLa S3 cells and A549 cells in MEM and DMEM medium with 10% FBS (1.5 × 10^5 cells/mL per one well) were seeded in to 96 well plates and incubated for 24 h, MTT assay of poly(bpy) ligands (0–25 μM), cisplatin (0–100 μM), and actinomycin D (0–10 μM) was performed according to the same procedure described above.

The subject of another assay is A549 cells. The experiment in a line: MTT assay, cytotoxicity against A549 cells. Conditions: treated for 24 h. The protocol:
as §1, §3

A further assay deals with U937 cells. Kind of assay: MTT assay, cytotoxicity against U937 cells. The note with it: MTT, 37 °C, treated for 24 h, read-out: EC50 against U937. The protocol: as §1, §2
Assay [2] relates to Jurkat cells. The experiment in a line: MTT assay, cytotoxicity against Jurkat cells. Conditions: MTT, 37 °C, read-out: EC50 against Jurkat (converted). The protocol:
as §1, §2

The subject of the next assay is IMR-90 cells. Kind of assay: MTT assay, cytotoxicity against IMR-90 cells (model of normal cells). The note with it: MTT, 37 °C, treated for 24 h, read-out: EC50 against IMR-90. As to the method:
as §1
IMR-90 cells in DMEM medium with 10% FBS (1.5 × 10^5 cells/mL) were seeded in to 96 well plates and incubated for 24 h at 37 °C, MTT assays with poly(bpy) ligands and their metal complexes (0–100 μM), cisplatin (0–100 μM), and actinomycin D (0–10 μM) were performed following the same procedure described above. These experiments were carried out at least three times. • (b) MTT assay in the presence of a caspase inhibitor. Jurkat cells were pre-treated with Z-VAD-fmk (15 μM) for 3 h, a general caspases inhibitor, followed by the treatment with 1 (1 μM), BABTA-AM (12.5 μM) and cisplatin (50 μM), respectively, for 24 h, and then MTT assay was carried out as described above. • (c) For evaluation of the effect of metal ions on the cytotoxicity of 1, 2, BAPTA, and BAPTA-AM, these ligands were incubated with metal ions such as Cu(NO3)2, Zn(NO3)2, FeSO4, Co(NO3)2, and NiSO4 for 1 h, respectively, and added to Jurkat cells. The whole mixtures were incubated for 12, 24, and 48 h at [ligand] = 0.78–25 μM and at [M^2+] = 1.71–37.5 μM ([ligand]/[M^2+] = 1:1.5). The MTT assays were conducted as described above.

Like-named read-outs stand apart in the source and are kept apart here. Bounds are passed on as bounds.

As usually defined, the EC50 is the concentration needed to bring the measured effect to its halfway point. On to `c1ccc(-c2ccc(OCc3cc(COc4ccc(-c5ccccn5)nc4)cc(COc4ccc(-c5ccccn5)nc4)c3)cn2)nc1` [compound 1, 1,3,5-Tris(([2,2′-Bipyridin]-5-yloxy)methyl)benzene], for which the “cell viability of Jurkat cells after preincubation with Z-VAD-fmk” value in the assay with Jurkat cells [1] (then compound 1 μM for 24 h) was “considerably restored”. The EC50 in the assay with MOLT-4 cells (Homo sapiens, MOLT-4, treated for 24 h) was 0.21 ± 0.36 µM; with MOLT-4 cells (Homo sapiens, MOLT-4, treated for 48 h) it was less than 0.1 µM; in the assay on HeLa S3 cells (Homo sapiens, HeLa S3, treated for 24 h) it was 16 ± 0.33 µM; in the assay with HeLa S3 cells (Homo sapiens, HeLa S3, treated for 48 h), 2.8 µM; with A549 cells (Homo sapiens, A549, 37 °C), 15 ± 0.79 µM; in the assay on U937 cells (Homo sapiens, U-937), 0.32 ± 0.22 µM. Moreover, the EC50 with Jurkat cells [2] (Homo sapiens, Jurkat, treated for 24 h) is 0.14 ± 0.13 µM; in the assay with Jurkat cells [2] (Homo sapiens, Jurkat, treated for 48 h), 0.064 µM; in the assay with IMR-90 cells (Homo sapiens, IMR-90), more than 100 µM.

As for `N.N.[Cl][Pt][Cl]` [cisplatin, reference compound], the “cell viability of Jurkat cells after preincubation with Z-VAD-fmk” value in the assay with Jurkat cells [1] (then compound 50 μM for 24 h) is recorded as “considerably restored”. The concentration for a half-maximal effect (EC50) in the assay with MOLT-4 cells (treated for 24 h) is 14 ± 0.3 µM; in the assay on HeLa S3 cells (treated for 24 h) it was 29 ± 1.2 µM; with A549 cells (37 °C), more than 100 µM; in the assay with U937 cells, 24 ± 0.9 µM; in the assay with Jurkat cells [2] (treated for 24 h) it was 33 ± 0.2 µM; with IMR-90 cells, more than 100 µM.
